# Test results published in patent publication US20250205275A1, “POLYMERIC IRON BINDING COMPOSITIONS AND METHODS OF USE FOR TREATING DISEASES ASSOCIATED WITH EXCESS DAMAGING REACTIVE IRON” (Fe Pharmaceuticals (Canada) Inc., priority 2022, published 2025).
# Marks after values point to notes of the source that are not given here.
# Key:
# [1] = tested on: microbial growth; settings: cited from earlier work
# [2] = tested on: fungi; settings: cited from earlier work
# [3] = cited from earlier work
# [4] = tested on: Gram negative bacteria; settings: cited from earlier work
# [5] = tested on: Gram positive bacteria; settings: cited from earlier work
# [6] = Resistance of chelator-bound iron(III) to chemical reduction by dithionite; assay type: physicochemical; settings: 0.1 M MOPS, pH 7.4
# Description: Chemical reduction of iron from Fe(III) to Fe(II) is part of the chemical reductive cycling of iron that drives ROS production in and around cells and also facilities removal of iron from intracellular stores for use elsewhere in the body. Generally iron in extracellular compartments of the body is in the Fe(III) form this helping to limit iron related toxic reactions as free Fe(II) would quickly oxidize to Fe(III) and this could drive, for example, ROS production. Thus, the relative ability of an iron chelator to hold Fe(III) and resist its reduction to Fe(II) would have benefits. Correspondingly, the relative chemical reducibility of Fe(III) to Fe(II) as bound by deferiprone, MAHMP and DIBI was tested. The different iron loaded chelators were first prepared so that iron only sufficient to ensure initial presence of fully coordinated iron(III) was used, i.e. a ratio of three chelator molecules of either deferiprone or MAHMP to each iron(III) atom present. DIBI with its measured MAHMP content was also similarly loaded with iron added just sufficient to satisfy its MAHMP iron binding sites on a similar basis. The iron-chelates were then reacted with dithionite (DT, [S2O4]^2−) a chemical reductant for iron and the relative changes in absorbance intensity at 460 nm was used to monitor for iron reduction with results as shown in FIG. 2.
# [7] = Iron(III) binding affinity by NaOH titration with UV-vis spectra (HypSpec2014); settings: 25° C.
# Method: The titrations were carried out under a wet nitrogen atmosphere to avoid concentration changes due to evaporation. Aliquots of each complex solution were taken periodically during the titration and the UV-vis spectra of the aliquots were collected as a batch once the titration was completed. The pH range studied spanned the equilibrium between bis and tris coordination for the ligands as these are the only two species expected at physiological pH. For Fe3-DIBI the spectra were collected 24 h after collecting the batch of aliquots. The spectra were processed using HypSpec2014 to determine the iron(III) binding affinity of […] and deferiprone (DFP) as reference as summarized in Table 7.
# [8] = in vivo; cited from earlier work
# [9] = tested on: ferroptosis; settings: cited from earlier work
# [10] = tested on: cells challenged with high-glucose; settings: cited from earlier work
# [11] = clinical trials; cited from earlier work
# [12] = Approx, based on close analogue 36 and FBS0701; cited from earlier work
# [13] = target: T1, ferroportin (Homo sapiens, UniProt Q9NP59); settings: clinical testing, advanced to phase II; cited from earlier work
# T1 sequence (Q9NP59 1-571): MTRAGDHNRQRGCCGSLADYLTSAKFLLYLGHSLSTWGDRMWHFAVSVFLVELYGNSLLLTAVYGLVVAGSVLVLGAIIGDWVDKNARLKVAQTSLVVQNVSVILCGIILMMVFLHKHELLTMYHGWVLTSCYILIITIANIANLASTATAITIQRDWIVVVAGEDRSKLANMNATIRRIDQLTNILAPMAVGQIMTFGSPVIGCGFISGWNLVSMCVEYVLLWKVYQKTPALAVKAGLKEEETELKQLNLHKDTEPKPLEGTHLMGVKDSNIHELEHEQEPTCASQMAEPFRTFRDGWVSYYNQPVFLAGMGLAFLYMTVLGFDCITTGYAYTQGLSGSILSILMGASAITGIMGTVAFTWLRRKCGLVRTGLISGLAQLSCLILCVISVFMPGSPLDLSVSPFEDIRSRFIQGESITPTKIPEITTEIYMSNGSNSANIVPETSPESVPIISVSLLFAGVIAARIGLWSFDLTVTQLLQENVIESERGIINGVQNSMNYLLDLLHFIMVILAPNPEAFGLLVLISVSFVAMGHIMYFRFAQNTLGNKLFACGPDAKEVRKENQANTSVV
# [14] = doxorubicin-induced mouse model; cited from earlier work
Compound,Antimicrobial activity [1],MIC fungi [2],Hydrophobicity/ hydrophilicity log P [3],MIC Gram negative bacteria [4],MIC Gram positive bacteria [5],cell viability [10],other results
O=C(O)c1ccc(-n2nc(-c3ccccc3O)nc2-c2ccccc2O)cc1 [Deferasirox],Low,67^p μM,4.3 ^b,133^m μM,21^l μM,,
Cc1c(O)c(=O)ccn1C [Deferiprone],Very Low,1151^n μM,−0.8 ^b,287^k μM,575^e μM,,reduction of bound iron(III) by dithionite (intensity of 460 nm band) [6]: readily reduced; Log β1 iron binding formation constant [7]: 15.01(1); Log β2 iron binding formation constant [7]: 27.5(7); Log β3 iron binding formation constant [7]: 36.7(1)
CC(=O)N(O)CCCCCNC(=O)CCC(=O)N(O)CCCCCNC(=O)CCC(=O)N(O)CCCCCN [Deferoxamine],"Poor,",>228^n μM,−3 ^b,>913^k μM,>913^k μM,rescued cell viability,infections in test animals [8]: fatal infections; effect on ferroptosis [9]: suppression
C=C(C)C(=O)NCCn1ccc(=O)c(O)c1C [MAHMP],,,,,,,reduction of bound iron(III) by dithionite (intensity of 460 nm band) [6]: The same reaction was observed; Log β1 iron binding formation constant [7]: 15.01(1); Log β2 iron binding formation constant [7]: 27.9(1); Log β3 iron binding formation constant [7]: 38.22(6)
COCCOCCOc1ccc(C2=N[C@@](C)(C(=O)O)CS2)c(O)c1 [SP-420],,,−0.89,,,,renal toxicity [11]: undesirable renal toxicity; Fe binding constant log K [12]: 33.1-33.4
O=C(NCc1ncccc1F)c1coc(CCNCCc2nc3ccccc3[nH]2)n1 [VIT-2763],,,,,,,lowering serum iron levels [13]: good potential for lowering serum iron levels; toxicity [13]: low toxicity
"O=C([O-])CN(CC(=O)[O-])CC(=O)[O-].[Fe+3] [ferric-nitriloacetate (NTA), ferric-nitriloacetate]",,,,,,,effect on ferroptosis [9]: promote ferroptosis and renal carcinoma
CCOC(=O)c1ccc(NC2CCCCC2)c(N)c1 [ferrostatin-1],,,,,,rescued cell viability,cardiac function [14]: improved cardiac function; mortality [14]: reduced mortality
O=c1c(O)c(-c2ccc(O)c(O)c2)oc2cc(O)cc(O)c12 [quercetin],,,,,,rescued cell viability,
